Results published in US5661175A, “Hemiasterlin and geodiamolide TA” (priority 1995, dated 1997).
Values after ≈ are worked out from the molar mass of the structure shown.

Experiments:
P-388 = assay: Antitumor cell screening, P-388 growth inhibition; type: cell-based, DBA/2 mouse; conditions: Mus musculus, 72 h; P388; three days incubation at 37° C.; approximate IC50
Description: (§1) Cells were maintained in logarithmic phase of growth in Eagle's Minimum Essential Medium, with Earle's Balanced Salts, with 2.0 mM L-Glutamine, with non-essential Amino Acids, without Sodium Bicarbonate (EMEM/NEAA); supplemented with 10% Fetal Calf Serum (FCS), 10^-2M Sodium Bicarbonate and 0.1 g/l Penicillin-G+Streptomycin Sulfate.
(§2) A simple screening procedure has been carried out to determine and compare the antitumor activity of these compounds, using an adapted form of the method described by Bergeron et al. (1984). The antitumor cell employed have been P-388 (suspension culture of a lymphoid neoplasm from DBA/2 mouse), A-549 (monolayer culture of a human lung carcinoma), HT-29 (monolayer culture of a human colon carcinoma) and MEL-28 (monolayer culture of a human melanoma).
(§3) P-388 cells were seeded into 16 mm wells at 1×10^4 cells per well in 1 ml aliquots of MEM 5FCS containing the indicated concentration of drug. A separate set of cultures without drug was seeded as control growth to ensure that cells remained in exponential phase of growth. All determinations were carried out in duplicate. After three days of incubation at 37° C., 10% CO2 in a 98% humid atmosphere, an approximately IC50 was determined by comparing the growth in wells with drug to the growth in wells control.

HT-29 = assay: Antitumor cell screening, HT-29 growth inhibition (Crystal Violet); type: cell-based; conditions: Homo sapiens, HT-29, 72 h; HT29; three days incubation at 37° C.; approximate IC50
Description: as §1, §2
as §3, with “A-549, HT-29 and MEL-28” for “P-388 cells”, “2×10^4” for “1×10^4”, “10FCS” for “5FCS”, “the wells were stained with 0.1% Crystal Violet. An” for “an”

MEL-28 = assay: Antitumor cell screening, MEL-28 growth inhibition (Crystal Violet); type: cell-based; conditions: Homo sapiens, SK-MEL-28, 72 h; MEL28; three days incubation at 37° C.; approximate IC50
Description: as §1, §2
as §3, with “A-549, HT-29 and MEL-28” for “P-388 cells”, “2×10^4” for “1×10^4”, “10FCS” for “5FCS”, “the wells were stained with 0.1% Crystal Violet. An” for “an”

A-549 = assay: Antitumor cell screening, A-549 growth inhibition (Crystal Violet); type: cell-based; conditions: Homo sapiens, 72 h; A549; three days incubation at 37° C.; approximate IC50
Description: as §1, §2
as §3, with “A-549, HT-29 and MEL-28” for “P-388 cells”, “2×10^4” for “1×10^4”, “10FCS” for “5FCS”, “the wells were stained with 0.1% Crystal Violet. An” for “an”

Question: `C/C1=C\C(C)CC(C)OC(=O)C(C(C)C)NC(=O)C(Cc2ccc(O)c(I)c2)N(C)C(=O)C(C)NC(=O)C(C)C1` (stereo not shown) [Compound 3, geodiamolide TA] was tested. Which IC50 (P-388) did it give?
Answer: 0.01 µg/mL (≈ 0.0149 µM)

Question: And the IC50 (HT-29)?
Answer: 0.005 µg/mL (≈ 0.00747 µM)

Question: And the IC50 (MEL-28)?
Answer: 0.01 µg/mL (≈ 0.0149 µM)

Question: What about the IC50 (A-549) of the same compound?
Answer: 0.01 µg/mL (≈ 0.0149 µM)
